From US7214703B2, “Pyrrolidinohydrochinazolines” (Boehringer Ingelheim International GmbH, priority 2003, dated 2007)
Counter-ions that a name gives are not always drawn.

Assays:
[1] = biological target: T1, human chemokine receptor CCR3 (Homo sapiens, UniProt P51677); assay: CCR3 receptor binding assay (SPA, 125I-eotaxin-1, membranes of hCCR3 transfected K562 cells); conditions: CCR3-Receptor Binding Protocol, radioligand 125I-eotaxin-1; read-out: Affinity (Ki-value)
T1 construct: expressed in transfected cells; host or cells: K562 cells (membrane preparation)
T1 sequence (P51677 1-355): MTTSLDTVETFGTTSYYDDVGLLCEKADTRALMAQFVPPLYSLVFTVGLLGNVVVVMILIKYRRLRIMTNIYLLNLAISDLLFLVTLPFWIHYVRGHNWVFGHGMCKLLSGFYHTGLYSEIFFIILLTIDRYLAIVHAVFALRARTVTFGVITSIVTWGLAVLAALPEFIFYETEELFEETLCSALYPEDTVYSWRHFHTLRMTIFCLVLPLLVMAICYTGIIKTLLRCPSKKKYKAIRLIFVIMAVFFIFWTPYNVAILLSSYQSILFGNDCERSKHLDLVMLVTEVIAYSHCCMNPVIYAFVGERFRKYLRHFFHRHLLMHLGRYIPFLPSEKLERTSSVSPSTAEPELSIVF
Text: Cell lines for expressing the receptor of interest include those naturally expressing the chemokine receptor, such as EOL-3 or THP-1, those induced to express the chemokine receptor by the addition of chemical or protein agents, such as HL-60 or AML14.3D10 cells treated with, for example, butyric acid with interleukin-5 present, or a cell engineered to express a recombinant chemokine receptor, such as CHO or HEK-293. Finally, blood or tissue cells, for example human peripheral blood eosinophils, isolated using methods as described by Hansel et al., J. Immunol. Methods, 145, 105–110 (1991), can be utilized in such assays. In particular, the compound of the present invention have activity in binding to the CCR-3 receptor in the aforementioned assays. […] Such a result is indicative of the intrinsic activity of the compounds as modulators of chemokine receptor activity. A general binding protocol is described below.
CCR3-Receptor Binding Protocol
The CCR3 receptor binding test is based on a K562 cell line (leukemia myelogenic blast cells ) transfected with the human chemokine receptor CCR3 (hCCR3-C1). The cell membranes were prepared by disrupting the hCCR3 transfected K562 cells by nitrogen […] and centrifugation at 40000 g, 4° C. for 1 h. The membranes were re-suspended in the SPA incubation buffer (see below) without bovine serum albumin for storage in aliquots at −80° C.
The CCR3 receptor binding assay with the radioligand ^125Jodine-eotaxin-1 was performed in a Scintillation Proximity Assay (SPA) design. Cell membranes of hCCR3 C1 cells were diluted in suitable concentrations (0.5–5 ug protein/well ) in 96 well microtiter plates (1450–401, Wallac).
The test incubation mixture comprising 60 μl of the membrane suspension, 80 μl of the Wheat Germ Agglutinin coated PVT beads (organic scintillator, Amersham Pharmacia biotech) in a concentration of 0.4 mg and 40 μl of radiolabelled ^125J rhEotaxin (Amersham, IM290) were incubated with 20 μl of the test compound (dissolved in DMSO dilutions ) for 2 hours. The SPA incubation buffer contained 25 mM HEPES, 25 mM MgCl2 6×H2O, 1 mM CaCl2 2×H2O and 0.1% bovine serum albumin. Included were controls for specific binding (no displacer added) and non-specific binding by adding unlabelled rhEotaxin (R&D Systems) or a test compound. Bound radioactivity was determined by scintillation counter (Micro Beta “Trilux”, Wallac). Determination of affinity of test compounds (dissociation constant Ki) was calculated by iterative fitting of experimental data using the law of mass action based program “easy sys” (Schittkowski, Num Math 68, 129–142 (1994)).

SMILES	melting point	Ki [1]
Brc1cccc2cccc(C=C3CCN4Cc5ccccc5N=C34)c12 [Example 124]	252 to 255 °C	1000 to 10000 nM
C(=C1/CCN2Cc3ccccc3N=C12)/c1ccsc1 [Example 116]	208 to 209 °C	1000 to 10000 nM
Clc1cccc(Cl)c1C=C1CCN2Cc3ccccc3N=C12 [Example 105]	198 to 199 °C	1000 to 10000 nM
Fc1ccc(C=C2CCN3Cc4ccccc4N=C23)c(Cl)c1 [Example 118]	202 to 203 °C	100 to 1000 nM
CCc1ccccc1C=C1CCN2Cc3ccccc3N=C12 [Example 110]	–	1000 to 10000 nM
Fc1ccccc1/C=C1\CCN2Cc3ccccc3N=C12 (as salt: HCl) [Example 106]	285 °C	–
Fc1ccccc1/C=C1\CCN2Cc3ccccc3N=C12 [Example 106]	–	1000 to 10000 nM
Brc1ccccc1C=C1CCN2Cc3ccccc3N=C12 [Example 101, 3-(2-Bromobenzylidene)-1,2,3,9-tetrahydro-pyrrolo[2,1-b]quinazoline]	–	1 to 100 nM
N=c1c2ccsc2nc2n1CCC2=Cc1ccccc1Br [Example 301, 7-(2-Bromobenzylidene)-6,7-dihydro-5H-1-thia-4a,8-diazo-s-indacen-4-ylideneamine]	183 to 184 °C	1 to 100 nM
COc1ccc(/C=C2\CCN3Cc4ccccc4N=C23)cc1C [Example 119]	174 to 175 °C	1000 to 10000 nM
Clc1ccc(C=C2CCN3Cc4ccccc4N=C23)c(Cl)c1 [Example 120]	187 to 188 °C	1000 to 10000 nM
Cc1oc2nc3n(c(=N)c2c1C)CC/C3=C\c1ccccc1Br [Example 306]	> 290 °C	100 to 1000 nM
FC(F)(F)Oc1ccccc1C=C1CCN2Cc3ccccc3N=C12 (as salt: HCl) [Example 122]	225 °C	–
CCOc1ccccc1/C=C1\CCN2Cc3ccccc3N=C12 [Example 113]	157 to 158 °C	1000 to 10000 nM
CCc1ccccc1C=C1CCN2Cc3ccccc3N=C12 (as salt: hydrochloride) [Example 127, 3-(2-Ethylbenzylidene)-1,2,3,9-tetrahydro-pyrrolo[2,1-b]quinazoline]	224 to 225 °C	–
N=c1c2ccccc2nc2n1CC/C2=C\c1ccccc1I [Example 203]	–	1 to 100 nM
FC(F)(F)c1ccccc1/C=C1\CCN2Cc3ccccc3N=C12 (as salt: HCl) [Example 108]	109 to 110 °C	–
N=c1c2c(C3CC3)csc2nc2n1CC/C2=C\c1ccccc1Br [Example 305]	209 °C	100 to 1000 nM
Clc1ccc(/C=C2\CCN3Cc4ccccc4N=C23)cc1Cl [Example 112]	200 °C	100 to 1000 nM
CN(C)c1ccc(/C=C2\CCN3Cc4ccccc4N=C23)c(Cl)c1 (as salt: HCl) [Example 107]	> 300 °C	–

SMILES	melting point	Ki [1]
CN(C)c1ccc(/C=C2\CCN3Cc4ccccc4N=C23)cc1 [Example 111]	205 °C	1000 to 10000 nM
CCc1ccccc1C=C1CCN2Cc3ccccc3N=C12 (as salt: HCl) [Example 110]	257 °C	–
CN(C)c1ccc(/C=C2\CCN3Cc4ccccc4N=C23)c(Cl)c1 [Example 107]	–	1000 to 10000 nM
Cc1sc2nc3n(c(=N)c2c1C)CC/C3=C\c1ccccc1Br [Example 303]	180 °C	100 to 1000 nM
N=c1c2ccccc2nc2n1CC/C2=C\c1ccccc1Cl [Example 202]	202 to 203 °C	1 to 100 nM
C(=C1/CCN2Cc3ccccc3N=C12)/c1ccccc1-c1ccccc1 [Example 117]	–	1000 to 10000 nM
Clc1ccccc1/C=C1\CCN2Cc3cc(Br)cc(Br)c3N=C12 [Example 102]	214 to 219 °C	1000 to 10000 nM
CCc1ccccc1/C=C1\CCn2c1nc1ccccc1c2=N [Example 204]	–	100 to 1000 nM
C(=C1/CCN2Cc3ccccc3N=C12)/c1cccs1 [Example 114]	208 to 210 °C	1000 to 10000 nM
Clc1ccccc1C=C1CCN2Cc3ccccc3N=C12 [Example 103]	190 to 191 °C	1 to 100 nM
Clc1ccccc1C=C1CCCN2Cc3ccccc3N=C12 [Example 126, 6-(2-Chlorobenzylidene)-6,8,9,11-tetrahydro-7H-pyrido[2,1-b]quinazoline]	242 to 248 °C	1000 to 10000 nM
N=c1c2ccccc2nc2n1CCC2=Cc1ccccc1Br [Example 201, 3-(2-Bromobenzylidene)-9-imino-2,3-dihydro-1H-pyrrolo[2,1-b]quinazoline]	–	1 to 100 nM
N=c1c2cccnc2nc2n1CC/C2=C\c1ccccc1Br [Example 208]	232 °C	100 to 1000 nM
COc1cc2nc3n(c(=N)c2cc1OC)CC/C3=C\c1ccccc1Br [Example 206]	192 to 194 °C	100 to 1000 nM
FC(F)(F)c1ccccc1/C=C1\CCN2Cc3ccccc3N=C12 [Example 108]	–	1000 to 10000 nM
FC(F)(F)Oc1ccccc1C=C1CCN2Cc3ccccc3N=C12 [Example 122]	–	1000 to 10000 nM
C(=C1/CCN2Cc3ccccc3N=C12)/c1ccccc1-c1ccccc1 (as salt: HCl) [Example 117]	255 to 256 °C	–
C(=C1CCN2Cc3ccccc3N=C12)c1ccco1 [Example 115]	170 °C	1000 to 10000 nM
COc1ccc(C=C2CCn3c2nc2ccccc2c3=N)cc1 [Example 205]	175 to 177 °C	1000 to 10000 nM
